Values quoted from earlier work as cited in patent publication US20070031570A1, “Hydrothermically processed compositions containing phytosterols” (Archer-Daniels-Midland Company, priority 2002, published 2007).
Where two headings read alike, the source gives them in different places.

Key:
[1] = not given; remark: listed apart in the source
[2] = 2.8 g sitostanol/day given as sitostanol ester in margarine

## CC[C@H](CC[C@@H](C)[C@H]1CC[C@H]2[C@@H]3CC=C4C[C@@H](O)CC[C@]4(C)[C@H]3CC[C@]12C)C(C)C [sitosterol]
dose-response study, 3-9 g/day of powdered sitosterol
  decrease serum cholesterol levels: 12%
Doses of 5-18 g sitosterol/day
  reduced serum cholesterol: 16-20%

## sitostanol ester
[1]; humans, dissolved in dietary fat
  less effective at reducing cholesterol absorption compared to the unesterified sterol: 21%
[2]
  reduced LDL cholesterol: 16%

## CC[C@H](CC[C@@H](C)[C@H]1CC[C@H]2[C@@H]3CC[C@H]4C[C@@H](O)CC[C@]4(C)[C@H]3CC[C@]12C)C(C)C [sitostanol]
[1]; delivery system which avoids an oil phase ('562 and '776 patents)
  reduces cholesterol absorption: ≤ 37%
Subjects with moderate hypercholesterolemia, 3 g/day
  effect on serum cholesterol: no effect
Subjects with severe hypercholesterolemia, 1.5 g/day
  reduced serum cholesterol: 15%

## neomycin
[1]; orally-administered
  effect on cholesterol absorption: reduces cholesterol absorption effectively
